Measurements reported in patent publication US12458021B2, “Microbiocidal derivatives” (SYNGENTA CROP PROTECTION AG, priority 2019, dated 2025).

Tests used:
[1] = test system: Phaeosphaeria nodorum (Septoria nodorum); experiment: Phaeosphaeria nodorum (Septoria nodorum) / wheat / leaf disc preventative (glume blotch); type: in vivo; conditions: Parastagonospora nodorum, foliar, wheat leaf segments cv. Kanzler, inoculated 2 days after application, assessed 5-7 days after application, read-out: control of Phaeosphaeria nodorum (percent disease control compared to untreated)
Procedure: Example B6: Phaeosphaeria nodorum (Septoria nodorum)/Wheat/Leaf Disc Preventative (Glume Blotch) Wheat leaf segments cv. Kanzler are placed on agar in a multiwell plate (24-well format) and sprayed with the formulated test compound diluted in water. The leaf disks are inoculated with a spore suspension of the fungus 2 days after application. The inoculated test leaf disks are incubated at 20° C. and 75% rh under a light regime of 12 h light/12 h darkness in a climate cabinet and the activity of a compound is assessed as percent disease control compared to untreated when an appropriate level of disease damage appears in untreated check leaf disks (5-7 days after application). […] […]-190.

[2] = test system: Glomerella lagenarium (Colletotrichum lagenarium); experiment: Glomerella lagenarium (Colletotrichum lagenarium) / liquid culture (anthracnose); type: cell-based; conditions: Colletotrichum orbiculare, PDB potato dextrose broth, 24° C., 3-4 days after application, read-out: control of Glomerella lagenarium (inhibition of growth, photometric)
Outline: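 Fungal growth inhibition measured photometrically 3-4 days post-application at 24° C. Spores were mixed directly into potato dextrose broth and dispensed onto test compound supplied in DMSO.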

[3] = test system: Mycosphaerella graminicola (Septoria tritici); experiment: Mycosphaerella graminicola (Septoria tritici) / liquid culture (Septoria blotch); type: cell-based; conditions: Zymoseptoria tritici, PDB potato dextrose broth, 24° C., 4-5 days after application, read-out: control of Mycosphaerella graminicola (inhibition of growth, photometric)
Outline: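 Fungal growth inhibition was read photometrically 4-5 days after application. Compound was dosed from a DMSO solution into liquid cultures of spores in potato dextrose broth, incubated at 24° C.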

[4] = test system: Botryotinia fuckeliana (Botrytis cinerea); experiment: Botryotinia fuckeliana (Botrytis cinerea) / liquid culture (gray mould); type: cell-based; conditions: Vogels broth, 24° C., 3-4 days after application, read-out: control of Botryotinia fuckeliana (inhibition of growth, photometric)
Procedure: Example B2: Botryotinia fuckeliana (Botrytis cinerea)/Liquid Culture (Gray Mould) Conidia of the fungus from cryogenic storage are directly mixed into nutrient broth (Vogels broth). After placing a (DMSO) solution of test compound into a microtiter plate (96-well format), the nutrient broth containing the fungal spores is added. The test plates are incubated at 24° C. and the inhibition of growth is determined photometrically 3-4 days after application. […] […]-190.

[5] = test system: Puccinia recondita f. sp. tritici; experiment: Puccinia recondita f. sp. tritici / wheat / leaf disc preventative (brown rust); type: in vivo; conditions: foliar, wheat leaf segments cv. Kanzler, inoculated 1 day after application, assessed 7-9 days after application, read-out: control of Puccinia recondita f. sp. tritici, preventative (percent disease control compared to untreated)
Outline: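 Wheat leaf segments (cv. Kanzler) on agar were sprayed with formulated compound, then inoculated with spores 1 day later. Segments were incubated at 19 °C, 75% rh with 12 h light/dark. Percent disease control versus untreated was scored 7–9 days after application.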

[6] = test system: Monographella nivalis (Microdochium nivale); experiment: Monographella nivalis (Microdochium nivale) / liquid culture (foot rot cereals); type: cell-based; conditions: PDB potato dextrose broth, 24° C., 4-5 days after application, read-out: control of Monographella nivalis (inhibition of growth, photometric)
Outline: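 Growth inhibition measured by photometry 4-5 days post-application at 24° C. Compound was dispensed as DMSO solution, then PDB broth containing conidia from cryogenic storage was added.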

[7] = test system: Blumeria graminis f. sp. tritici (Erysiphe graminis f. sp. tritici); experiment: Blumeria graminis f. sp. tritici / wheat / leaf disc preventative (powdery mildew on wheat); type: in vivo; conditions: foliar, wheat leaf segments cv. Kanzler, inoculated 1 day after application, assessed 6-8 days after application, read-out: control of Blumeria graminis f. sp. tritici (percent disease control compared to untreated)
Text: Example B4: Blumeria graminis f. sp. tritici (Erysiphe graminis f. sp. tritici)/Wheat/Leaf Disc Preventative (Powdery Mildew on Wheat) Wheat leaf segments cv. Kanzler are placed on agar in a multiwell plate (24-well format) and sprayed with the formulated test compound diluted in water. The leaf disks are inoculated by shaking powdery mildew infected plants above the test plates 1 day after application. […] […]-192.

[8] = test system: Mycosphaerella arachidis (Cercospora arachidicola); experiment: Mycosphaerella arachidis (Cercospora arachidicola) / liquid culture (early leaf spot); type: cell-based; conditions: PDB potato dextrose broth, 24° C., 4-5 days after application, read-out: control of Mycosphaerella arachidis (inhibition of growth, photometric)
Procedure: Example B8: Mycosphaerella arachidis (Cercospora arachidicola)/Liquid Culture (Early Leaf Spot) Conidia of the fungus from cryogenic storage are directly mixed into nutrient broth (PDB potato dextrose broth). After placing a (DMSO) solution of test compound into a microtiter plate (96-well format), the nutrient broth containing the fungal spores is added. The test plates are incubated at 24° C. and the inhibition of growth is determined photometrically 4-5 days after application. […] […]-180.

[9] = test system: Pyrenophora teres; experiment: Pyrenophora teres / barley / leaf disc preventative (net blotch); type: in vivo; conditions: foliar, barley leaf segments cv. Hasso, inoculated 2 days after application, assessed 5-7 days after application, read-out: control of Pyrenophora teres (disease control compared to untreated)
Procedure: Example B13: Pyrenophora teres/Barley/Leaf Disc Preventative (Net Blotch) Barley leaf segments cv. Hasso are placed on agar in a multiwell plate (24-well format) and sprayed with the formulated test compound diluted in water. The leaf segments are inoculated with a spore suspension of the fungus 2 days after application. The inoculated leaf segments are incubated at 20° C. and 65% rh under a light regime of 12 h light/12 h darkness in a climate cabinet and the activity of a compound is assessed as disease control compared to untreated when an appropriate level of disease damage appears in untreated check leaf segments (5-7 days after application). […] […]-185.

[10] = test system: Alternaria solani; experiment: Alternaria solani / tomato / leaf disc (early blight); type: in vivo; conditions: foliar, tomato leaf disks cv. Baby, inoculated 2 days after application, assessed 5-7 days after application, read-out: control of Alternaria solani (percent disease control compared to untreated)
Procedure: Example B1: Alternaria solani/Tomato/Leaf Disc (Early Blight) Tomato leaf disks cv. Baby are placed on agar in multiwell plates (24-well format) and sprayed with the formulated test compound diluted in water. The leaf disks are inoculated with a spore suspension of the fungus 2 days after application. The inoculated leaf disks are incubated at 23° C./21° C. […] […]-185.

[11] = test system: Sclerotinia sclerotiorum; experiment: Sclerotinia sclerotiorum / liquid culture (cottony rot); type: cell-based; conditions: PDB potato dextrose broth, mycelia fragments, 24° C., 3-4 days after application, read-out: control of Sclerotinia sclerotiorum (inhibition of growth, photometric)
Procedure: Example B14: Sclerotinia sclerotiorum/Liquid Culture (Cottony Rot) Mycelia fragments of a newly grown liquid culture of the fungus are directly mixed into nutrient broth (PDB potato dextrose broth). After placing a (DMSO) solution of test compound into a microtiter plate (96-well format) the nutrient broth containing the fungal material is added. The test plates are incubated at 24° C. and the inhibition of growth is determined photometrically 3-4 days after application.

[12] = test system: Magnaporthe grisea (Pyricularia oryzae); experiment: whole plant or invertebrate; type: in vivo; conditions: foliar, read-out: control of Magnaporthe grisea (percent disease control compared to untreated)

COc1ccc(Nc2cc(F)cc(F)c2Cl)nc1C(=O)NC(C)(C)C [Compound P-190, N-tert-butyl-6-(2-chloro-3,5-difluoro-anilino)-3-methoxy-pyridine-2-carboxamide]
≥ 80%: pest or weed control at 200 ppm [1] | inhibition at 20 ppm [2] | inhibition at 20 ppm [3] | inhibition at 20 ppm [4] | pest or weed control at 200 ppm [5] | inhibition at 20 ppm [6]

COc1ccc(Nc2cc(F)cc(F)c2)nc1C(=O)NC(C)(C)C(C)(C)C [Compound P-171, 6-(3,5-difluoroanilino)-3-methoxy-N-(1,1,2,2-tetramethylpropyl)pyridine-2-carboxamide]
≥ 80%: pest or weed control at 200 ppm [1] | inhibition at 20 ppm [2] | pest or weed control at 200 ppm [7] | inhibition at 20 ppm [3] | inhibition at 20 ppm [4] | pest or weed control at 200 ppm [5] | inhibition at 20 ppm [8] | inhibition at 20 ppm [6] | pest or weed control at 200 ppm [9] | pest or weed control at 200 ppm [10]

COc1ccc(Nc2cc(F)cc(Cl)c2)nc1C(=O)NCC(C)(C)C [Compound P-134, 6-(3-chloro-5-fluoro-anilino)-N-(2,2-dimethylpropyl)-3-methoxy-pyridine-2-carboxamide]
≥ 80%: inhibition at 20 ppm [2] | pest or weed control at 200 ppm [7] | inhibition at 20 ppm [3] | inhibition at 20 ppm [4] | inhibition at 20 ppm [6] | pest or weed control at 200 ppm [9]

COc1cc(Nc2cc(F)cc(F)c2)nc(C(=O)NC(C)(C)C)c1 [Compound P-116, N-tert-butyl-6-(3,5-difluoroanilino)-4-methoxy-pyridine-2-carboxamide]
≥ 80%: pest or weed control at 200 ppm [1] | inhibition at 20 ppm [2] | inhibition at 20 ppm [4] | pest or weed control at 200 ppm [9]

COc1ccc(Nc2ccc3occc3c2)nc1C(=O)NC(C)(C)C [Compound P-157, 6-(benzofuran-5-ylamino)-N-tert-butyl-3-methoxy-pyridine-2-carboxamide]
≥ 80%: inhibition at 20 ppm [2] | inhibition at 20 ppm [3] | inhibition at 20 ppm [6] | inhibition at 20 ppm [11]

COc1ccc(Nc2cc(F)nc(F)c2)nc1C(=O)NC(C)(C)C(C)C [Compound P-173, 6-[(2,6-difluoro-4-pyridyl)amino]-3-methoxy-N-(1,1,2-trimethylpropyl)pyridine-2-carboxamide]
≥ 80%: inhibition at 20 ppm [2] | pest or weed control at 200 ppm [7] | inhibition at 20 ppm [3] | inhibition at 20 ppm [4] | pest or weed control at 200 ppm [5] | inhibition at 20 ppm [6] | pest or weed control at 200 ppm [10]

CC1(NC(=O)c2cccc(Nc3cc(F)cc(F)c3)n2)CCCC1 [Compound P-119, 6-(3,5-difluoroanilino)-N-(1-methylcyclopentyl)pyridine-2-carboxamide]
≥ 80%: inhibition at 20 ppm [2] | inhibition at 20 ppm [3] | inhibition at 20 ppm [4] | pest or weed control at 200 ppm [5] | pest or weed control at 200 ppm [12] | inhibition at 20 ppm [6]

COc1ccc(Nc2cc(F)cc(F)c2)nc1C(=O)NC(C)(C)C(C)C [Compound P-172, 6-(3,5-difluoroanilino)-3-methoxy-N-(1,1,2-trimethylpropyl)pyridine-2-carboxamide]
≥ 80%: pest or weed control at 200 ppm [1] | inhibition at 20 ppm [2] | pest or weed control at 200 ppm [7] | inhibition at 20 ppm [3] | inhibition at 20 ppm [4] | pest or weed control at 200 ppm [5] | inhibition at 20 ppm [8] | inhibition at 20 ppm [6] | pest or weed control at 200 ppm [10]

COc1ccc(N(C(C)=O)c2cc(F)cc(F)c2)nc1C(=O)NC1CCC1(C)C (stereo not drawn) [Compound P-189, 6-(N-acetyl-3,5-difluoro-anilino)-N-(2,2-dimethylcyclobutyl)-3-methoxy-pyridine-2-carboxamide]
≥ 80%: pest or weed control at 200 ppm [1] | inhibition at 20 ppm [2] | pest or weed control at 200 ppm [7] | inhibition at 20 ppm [3] | inhibition at 20 ppm [4] | pest or weed control at 200 ppm [12] | inhibition at 20 ppm [6]

CC(C)(C)NC(=O)c1cccc(Nc2cc(F)cc(F)c2)n1 [Compound P-112, N-tert-butyl-6-(3,5-difluoroanilino)pyridine-2-carboxamide]
≥ 80%: pest or weed control at 200 ppm [1] | inhibition at 20 ppm [2] | pest or weed control at 200 ppm [7] | inhibition at 20 ppm [3] | inhibition at 20 ppm [4] | pest or weed control at 200 ppm [5] | pest or weed control at 200 ppm [12] | inhibition at 20 ppm [6] | pest or weed control at 200 ppm [10]

COc1ccc(Nc2cc(F)cc(F)c2)nc1C(=O)NC(C)C(C)(C)C (stereo not drawn) [Compound P-170, 6-(3,5-difluoroanilino)-3-methoxy-N-(1,2,2-trimethylpropyl)pyridine-2-carboxamide]
≥ 80%: inhibition at 20 ppm [2] | pest or weed control at 200 ppm [7] | inhibition at 20 ppm [3] | inhibition at 20 ppm [4] | inhibition at 20 ppm [6] | pest or weed control at 200 ppm [10]

COc1ccc(Nc2cc(F)cc(F)c2)nc1C(=O)NC1(C)CCOC1 (stereo not drawn) [Compound P-122, 6-(3,5-difluoroanilino)-3-methoxy-N-(3-methyltetrahydrofuran-3-yl)pyridine-2-carboxamide]
≥ 80%: inhibition at 20 ppm [2] | pest or weed control at 200 ppm [7] | inhibition at 20 ppm [3] | pest or weed control at 200 ppm [12] | inhibition at 20 ppm [6] | inhibition at 20 ppm [11]

COc1ccc(Nc2cccc(Cl)c2)nc1C(=O)NC(C)(C)C [Compound P-155, N-tert-butyl-6-(3-chloroanilino)-3-methoxy-pyridine-2-carboxamide]
≥ 80%: inhibition at 20 ppm [2] | inhibition at 20 ppm [3] | inhibition at 20 ppm [4] | pest or weed control at 200 ppm [5] | pest or weed control at 200 ppm [12] | inhibition at 20 ppm [6] | pest or weed control at 200 ppm [9]
